The test system of the experiment is A/California/09. Also noted: species or system BALB/c mice. Conditions: mouse, in vivo.

Survival data for one compound are collected here from publication PMC7856883 (Advanced Science, 2020).

SMILES strings stand for the structures. Where “and” joins values, the source holds several entries; their conditions need not be identical. Identical values can stand only once.

Take `CCOC(=O)C1=C[C@@H](OC(CC)CC)[C@H](NC(C)=O)[C@@H](N)C1` [oseltamivir]: the survival is 10/10 and 0 out of 10 and no survival.
